The target in experiment [1] is Cullin-4A (Mus musculus) (UniProt Q3TCH7). The experiment can be described thus: Inhibition of CUL4A in mouse MEF cells stably expressing FL FLAG-tagged DDB2 assessed as reduction in F-DDB2 degradation incubated for 2 hrs before irradiated with 10 J/m2 UV irradiation. The format is cell-based.
For experiment [2], the target named is T1, Cullin-4A (Homo sapiens, UniProt Q13619). The experiment is described as follows: Inhibition of GST-tagged CUL4A/Rbxl ubiquitin ligase activity (unknown origin) assessed as reduction in reconstituted DDB1 ubiquitination in presence of ubiquitin, El, E2 and DDB1 incubated for 1 hr by Western blotting analysis. In general terms: Immunoblotting shows a protein as a band on a membrane.
T1 sequence (Q13619 whole entry): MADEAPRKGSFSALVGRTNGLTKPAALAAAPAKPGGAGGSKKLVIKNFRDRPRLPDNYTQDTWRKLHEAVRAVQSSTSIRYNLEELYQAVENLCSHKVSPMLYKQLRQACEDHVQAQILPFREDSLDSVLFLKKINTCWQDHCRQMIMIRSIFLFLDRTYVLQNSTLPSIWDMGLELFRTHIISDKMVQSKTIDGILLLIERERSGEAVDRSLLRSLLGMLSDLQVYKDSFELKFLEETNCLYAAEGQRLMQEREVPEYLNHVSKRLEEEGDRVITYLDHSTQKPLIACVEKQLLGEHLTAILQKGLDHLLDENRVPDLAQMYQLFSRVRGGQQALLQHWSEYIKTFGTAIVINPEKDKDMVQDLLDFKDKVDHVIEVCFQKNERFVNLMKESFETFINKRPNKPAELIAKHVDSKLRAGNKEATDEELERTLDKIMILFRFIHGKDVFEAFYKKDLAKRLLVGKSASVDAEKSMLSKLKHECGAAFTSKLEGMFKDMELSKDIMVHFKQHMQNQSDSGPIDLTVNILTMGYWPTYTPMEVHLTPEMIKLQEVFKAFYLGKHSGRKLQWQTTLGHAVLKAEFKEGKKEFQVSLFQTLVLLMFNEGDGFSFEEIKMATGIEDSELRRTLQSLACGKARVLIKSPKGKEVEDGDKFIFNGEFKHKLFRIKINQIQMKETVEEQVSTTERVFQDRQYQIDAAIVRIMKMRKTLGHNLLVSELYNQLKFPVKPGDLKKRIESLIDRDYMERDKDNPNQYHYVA

In the next experiment the target is Cullin-4B (Homo sapiens) (UniProt Q13620). The experiment is described as follows: Inhibition of CUL4B in human MCF7 cells assessed as reduction in 3-methylcholanthrene-induced androgen receptor degradation at 50 uM. The format is cell-based.
Chain of Cullin-4B (Homo sapiens) (Q13620 whole entry): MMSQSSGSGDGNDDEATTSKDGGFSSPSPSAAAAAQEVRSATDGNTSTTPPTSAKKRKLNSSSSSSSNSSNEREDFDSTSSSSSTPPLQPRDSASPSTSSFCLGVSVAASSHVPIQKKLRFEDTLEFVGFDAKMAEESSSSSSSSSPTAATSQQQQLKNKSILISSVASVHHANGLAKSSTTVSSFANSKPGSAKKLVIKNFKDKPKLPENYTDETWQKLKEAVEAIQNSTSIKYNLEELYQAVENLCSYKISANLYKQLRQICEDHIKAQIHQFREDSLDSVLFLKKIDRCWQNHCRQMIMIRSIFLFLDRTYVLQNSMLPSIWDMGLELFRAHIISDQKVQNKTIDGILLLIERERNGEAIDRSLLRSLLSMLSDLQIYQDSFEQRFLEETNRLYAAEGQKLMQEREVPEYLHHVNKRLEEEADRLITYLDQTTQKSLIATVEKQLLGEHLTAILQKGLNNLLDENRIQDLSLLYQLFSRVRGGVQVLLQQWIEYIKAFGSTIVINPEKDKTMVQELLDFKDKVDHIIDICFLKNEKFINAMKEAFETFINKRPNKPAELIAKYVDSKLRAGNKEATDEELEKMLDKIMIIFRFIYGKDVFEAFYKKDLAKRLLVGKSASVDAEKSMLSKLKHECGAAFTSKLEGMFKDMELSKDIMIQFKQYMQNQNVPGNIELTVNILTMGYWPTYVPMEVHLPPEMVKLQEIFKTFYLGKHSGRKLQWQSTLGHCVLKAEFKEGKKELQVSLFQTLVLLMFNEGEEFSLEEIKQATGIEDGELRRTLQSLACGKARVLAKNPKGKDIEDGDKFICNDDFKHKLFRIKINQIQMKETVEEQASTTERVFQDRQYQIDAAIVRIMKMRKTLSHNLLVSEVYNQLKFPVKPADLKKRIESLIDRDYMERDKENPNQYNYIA
For the next experiment, the target named is Cullin-1 (Homo sapiens) (UniProt Q13616). The experiment is described as follows: Inhibition of CUL1 in human U20S cells assessed as reduction in TNF-alpha-induced IkappaB-alpha degradation at 50 uM incubated for 2 hrs followed by TNFalpha stimulation for 15 mins by Western blotting analysis. The format is cell-based.
Chain of Cullin-1 (Homo sapiens) (Q13616 whole entry): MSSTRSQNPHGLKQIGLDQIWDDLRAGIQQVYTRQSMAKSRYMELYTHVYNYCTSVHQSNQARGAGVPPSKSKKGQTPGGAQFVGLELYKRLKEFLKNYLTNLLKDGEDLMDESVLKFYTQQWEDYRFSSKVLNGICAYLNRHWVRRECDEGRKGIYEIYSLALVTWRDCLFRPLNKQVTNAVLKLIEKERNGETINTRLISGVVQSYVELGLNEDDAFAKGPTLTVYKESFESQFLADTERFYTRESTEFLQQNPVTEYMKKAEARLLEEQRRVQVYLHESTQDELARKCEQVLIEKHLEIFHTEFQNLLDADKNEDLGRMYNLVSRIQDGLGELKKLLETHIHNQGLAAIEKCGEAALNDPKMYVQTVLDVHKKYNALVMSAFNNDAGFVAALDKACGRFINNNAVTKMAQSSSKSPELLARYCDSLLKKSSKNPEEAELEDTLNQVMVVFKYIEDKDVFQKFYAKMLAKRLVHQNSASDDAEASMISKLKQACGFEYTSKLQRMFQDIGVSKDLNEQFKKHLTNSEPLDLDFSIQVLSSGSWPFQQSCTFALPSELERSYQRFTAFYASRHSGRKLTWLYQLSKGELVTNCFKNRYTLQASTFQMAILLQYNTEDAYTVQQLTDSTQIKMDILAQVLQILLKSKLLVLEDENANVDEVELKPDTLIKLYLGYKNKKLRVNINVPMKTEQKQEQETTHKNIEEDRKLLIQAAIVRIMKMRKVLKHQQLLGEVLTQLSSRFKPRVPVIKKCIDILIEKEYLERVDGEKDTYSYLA
In experiment [3] the target is T1, Cullin-4A. The experiment can be described thus: Inhibition of CUL4A in human HCT116 cells assessed as promotion of UV-damaged DNA repair by measuring enhancement of 6,4-photoproducts removal pre-incubated for 2 hrs before UV-irradiation by ELISA. The format is cell-based. For orientation: An ELISA detects its analyte on a solid surface through an enzyme-linked reagent.

Experiment [4] addresses Cullin-4A (Mus musculus) (UniProt Q3TCH7). The experiment is described as follows: Inhibition of CUL4A in mouse MEF cells stably expressing FL FLAG-tagged DDB2 assessed as reduction in F-DDB2 degradation incubated for 2 hrs before irradiated with 10 J/m2 UV irradiation relative to control. The experiment is classed as cell-based.
The test system of another experiment is Proteasome. The experiment is described as follows: Inhibition of proteasome in mouse MEF cells stably expressing FL FLAG-tagged DDB2 assessed as reduction in F-DDB2 degradation incubated for 2 hrs before irradiated with 10 J/m2 UV irradiation.

The source made the active and inactive calls. The calls are words filed in the database; no cut-off is given here. Where a SMILES comes first, the peptide text is derived from it. The star is where a group is joined. Cbz = O=C(OCc1ccccc1)*

Chain of Cullin-4A (Mus musculus) (Q3TCH7 whole entry): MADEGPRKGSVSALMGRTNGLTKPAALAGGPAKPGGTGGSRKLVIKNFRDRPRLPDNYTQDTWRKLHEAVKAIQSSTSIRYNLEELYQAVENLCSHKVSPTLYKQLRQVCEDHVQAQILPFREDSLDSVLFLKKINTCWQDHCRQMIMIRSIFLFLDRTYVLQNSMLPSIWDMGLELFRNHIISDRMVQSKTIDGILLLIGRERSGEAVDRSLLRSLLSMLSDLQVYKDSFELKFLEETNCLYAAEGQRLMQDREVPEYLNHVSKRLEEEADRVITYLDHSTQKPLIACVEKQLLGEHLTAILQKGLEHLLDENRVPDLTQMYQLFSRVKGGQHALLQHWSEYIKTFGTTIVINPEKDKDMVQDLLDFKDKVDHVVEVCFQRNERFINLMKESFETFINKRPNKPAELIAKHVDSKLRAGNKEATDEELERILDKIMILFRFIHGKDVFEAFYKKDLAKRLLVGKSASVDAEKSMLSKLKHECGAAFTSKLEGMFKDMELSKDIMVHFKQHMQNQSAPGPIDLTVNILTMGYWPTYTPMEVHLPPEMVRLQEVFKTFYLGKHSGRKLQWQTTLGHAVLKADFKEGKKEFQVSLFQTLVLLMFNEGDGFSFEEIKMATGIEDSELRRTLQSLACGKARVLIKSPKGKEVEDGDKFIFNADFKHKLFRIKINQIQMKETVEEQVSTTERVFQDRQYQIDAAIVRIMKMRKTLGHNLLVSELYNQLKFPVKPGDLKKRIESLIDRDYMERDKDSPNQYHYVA

On to `CCOC(=O)Oc1cc2oc(=O)sc2cc1Br`, for which the “inhibition (active/inactive call)” value on Cullin-4A (Mus musculus) [1] is “Active”.
As a reminder, the IC50 is the midpoint of a concentration-inhibition curve. On to `CC(C)c1nnc(S)n1-c1ccc(Cl)c(Cl)c1`, for which, at Cullin-4A (Mus musculus) [1], the “inhibition (active/inactive call)” value is “Active”. The half-inhibitory concentration (IC50) at Cullin-4A [2] was < 0.24 µM. Besides, at Cullin-4B (Homo sapiens), the inhibition result was “inactive”.
As to `COc1ccc(-c2c3c([nH]c(=S)c2C#N)CCCC3)cc1`, at Cullin-4A (Mus musculus) [1], the “inhibition (active/inactive call)” value is “Active”. For the same compound, the inhibition result at Cullin-1 (Homo sapiens) and at Cullin-4B (Homo sapiens) was “inactive” each time.
Take `N#Cc1c(S)nc2c(c1-c1ccco1)CCCC2`: the “inhibition (active/inactive call)” value on Cullin-4A (Mus musculus) [1] is “Active”. Also, the inhibition entry at Cullin-1 (Homo sapiens) and at Cullin-4B (Homo sapiens) was “inactive” each time. The inhibition result at Cullin-4A [3] was “Active”. Moreover, the inhibition entry at Cullin-4A (Mus musculus) [4] was “Dose-dependent effect”.
Regarding `CCOC(=O)Oc1cc2oc(=O)sc2cc1Cl`, on Cullin-4A (Mus musculus) [1], the “inhibition (active/inactive call)” value was “Active”.
On to `O=c1oc2c(Br)c(O)c(Br)cc2s1`, for which, at Cullin-4A (Mus musculus) [1], the “inhibition (active/inactive call)” value is “Active”. Moreover, at Cullin-4B (Homo sapiens), the inhibition result is “inactive”.
Turning to `CC(C)C[C@@H](C=O)NC(=O)[C@H](CC(C)C)NC(=O)[C@H](CC(C)C)NC(=O)OCc1ccccc1` (Cbz-Leu-Leu-Leu-aldehyde), the inhibition entry in the experiment with Proteasome is “Active”.
`N#CC1=C(N)SC(N)=C(C#N)C1CCc1ccccc1`: on Cullin-4A [2], the IC50 was determined as 3.68 µM.
Take `N#Cc1c(-c2ccco2)c2c([nH]c1=S)CCCC2`: the IC50 at Cullin-4A [2] is 0.554 µM.
With `N#CC1=C(N)SC(N)=C(C#N)C1c1ccccc1F`, the “inhibition (active/inactive call)” value at Cullin-4A (Mus musculus) [1] is “Active”. For the same compound, the inhibition entry on Cullin-1 (Homo sapiens) and at Cullin-4B (Homo sapiens) was “inactive” in each case. In addition, the inhibition entry on Cullin-4A [3] was “Active”. Besides, the inhibition result on Cullin-4A (Mus musculus) [4] was “Dose-dependent effect”.
As to `N#CC1=C(N)SC(N)=C(C#N)C1c1ccc(C(F)(F)F)cc1`, the IC50 at Cullin-4A [2] is > 50 µM.
With `CCOC(=O)Oc1c(Cl)cc2oc(=O)sc2c1Cl`, the “inhibition (active/inactive call)” value at Cullin-4A (Mus musculus) [1] was “Active”.
As to `Sc1nnc(C2CC2)n1-c1ccc(Cl)c(Cl)c1`, the “inhibition (active/inactive call)” value at Cullin-4A (Mus musculus) [1] is “Active”. In addition, the IC50 at Cullin-4A [2] is 703 µM. Moreover, on Cullin-4B (Homo sapiens), the inhibition result was “inactive”.
On to `COC(=O)c1sc(=S)n(-c2ccc(F)cc2F)c1N`, for which, at Cullin-4A (Mus musculus) [1], the “inhibition (active/inactive call)” value is “Active”.
Turning to `COc1ccc(-c2nnc(S)n2-c2ccc(C)cc2)cc1`, the “inhibition (active/inactive call)” value on Cullin-4A (Mus musculus) [1] is “Active”. The IC50 on Cullin-4A [2] was 2.4 µM. The inhibition entry on Cullin-4B (Homo sapiens) was “inactive”.
With `CC(=O)CN1C(=O)C(=O)c2cc(Br)ccc21`, the “inhibition (active/inactive call)” value at Cullin-4A (Mus musculus) [1] is “Active”.
Regarding `CNC(=O)Oc1c(Br)cc2sc(=O)oc2c1Br`, the IC50 on Cullin-4A [2] is < 0.24 µM.
On the same count and under the same terms, under `COc1ccc(-c2c3c([nH]c(=S)c2C#N)CCC3)cc1` stands 0.997 µM.
Regarding `N#CC1=C(N)SC(N)=C(C#N)C1c1cccs1`, at Cullin-4A (Mus musculus) [1], the “inhibition (active/inactive call)” value was “Active”. In addition, the inhibition result on Cullin-1 (Homo sapiens) and on Cullin-4B (Homo sapiens) was “inactive” throughout.
In the case of `COc1nsc(I)c1C#N`, the “inhibition (active/inactive call)” value on Cullin-4A (Mus musculus) [1] is “Active”. Further, on Cullin-4B (Homo sapiens), the inhibition entry was “inactive”.
As for `COC(=O)Oc1cc2oc(=O)sc2cc1Cl`, at Cullin-4A (Mus musculus) [1], the “inhibition (active/inactive call)” value was “Active”.
Still for that read-out and setting: under `CC1(C)Cc2c(c(N3CCNCC3)[nH]c(=S)c2C#N)CO1` stands “Active”.
In the case of `N#Cc1c(-c2ccncc2)c2c([nH]c1=S)CCCC2`, at Cullin-4A [2], the IC50 was found to be 2.68 µM.
Still for that read-out and setting: as for `COC(=O)Oc1c(Br)c(C)c2oc(=O)sc2c1Br`, the figure is < 0.24 µM.
Take `O=[N+]([O-])c1c(Cl)ncnc1N1CCCCC1CO` (stereo not drawn): the “inhibition (active/inactive call)” value on Cullin-4A (Mus musculus) [1] is “Active”.
Consider `N#CC1=C(N)SC(N)=C(C#N)C1c1ccco1`, for which the “inhibition (active/inactive call)” value at Cullin-4A (Mus musculus) [1] was “Active”. Moreover, the inhibition result at Cullin-1 (Homo sapiens) and on Cullin-4B (Homo sapiens) was “inactive” throughout.
With `Clc1ccc2nc(Cl)c3nnnn3c2c1`, the “inhibition (active/inactive call)” value at Cullin-4A (Mus musculus) [1] is “Active”.
Regarding `N#CC1=C(N)SC(N)=C(C#N)C1c1cc(Br)ccc1F`, at Cullin-4A [2], the IC50 is 690 µM.
As for `COc1ccc(-c2c(C#N)c(S)nc3c2CCC3)cc1`, at Cullin-4A (Mus musculus) [1], the “inhibition (active/inactive call)” value was “Active”. Besides, the inhibition entry at Cullin-1 (Homo sapiens) and at Cullin-4B (Homo sapiens) was “inactive” throughout.

Values taken from ChEMBL document CHEMBL4418496, “Inhibitors of crl4 ubiquitin ligase and uses thereof” (2014).
